Results from US5041542A, “Substituted pyrimido[5,4-d]pyrimidine nucleosides” (Nucleic Acid Research Institute, priority 1988, dated 1991).
Values after ≈ are worked out from the molar mass of the structure shown. Where two headings read alike, the source gives them in different places.

Key:
[1] = system: vaccinia virus (Elstree strain); format: cell-based; conditions: HeLa cells; VR >1.0 marked, 0.5 to 0.9 moderate, <0.5 weak or no activity
physchem = conditions: water
LoVo/L cells = assay: In vitro cytotoxicity, LoVo/L; format: cell-based; conditions: Homo sapiens, 120 h, 5 days, 37° C., MTT, read-out: Antitumor (ID50) LoVo/L
Experimental: (§1) ^b (ID50) inhibitory dose is the μM concentration of the
(§2) In vitro cytotoxicity analysis was performed by using the following cell lines: L1210 (a murine leukemia), WI-L2 (a human B-lymphoblast), and LoVo/L (a human colon carcinoma). Cells were grown in RPMI 1640 medium supplemented with 10% fetal bovine serum, 20 mM HEPES, pH 7.4, and 2 mM glutamine. The cytotoxicity determinations were carried out in 96-well microtiter dishes containing a starting number of 5-10×10^3 cells per well and 0.1-100 μM concentrations of the compounds in triplicate wells. L1210 and WI-L2 were incubated with the compounds at 37° C. for 3 days, while Lovo/L was incubated for 5 days. After this time period, 25 μL of 4 mg/mL 3-(4,5-dimethylthiazol-2-yl)-2,5-diphenyltetrazolium bromide was added to each well and incubation was continued for 2 to 5 h. The formazan product was dissolved in isopropanol containing 0.04M HCl and the absorbance was determined with a microtiter plate reader. The absorbance was proportional to the number of cells.

[2] = system: Herpes 2, parainfluenza 3 and Vaccinia; format: cell-based; conditions: tested in parallel with ARPP (8)
L1210 cells = assay: In vitro cytotoxicity, L1210; format: cell-based, murine; conditions: Mus musculus, L1210, 72 h; 3 days, 37° C., MTT; read-out: Antitumor (ID50) L1210
Experimental: as §1, §2

[3] = Lethal toxicity in treated mice; conditions: i.p., maximum soluble dosage
WI-L2 cells = assay: In vitro cytotoxicity, WI-L2; format: cell-based; conditions: Homo sapiens, WIL2, 72 h; 3 days, 37° C., MTT; read-out: Antitumor (ID50) WI-L2
Experimental: as §1, §2

[4] = system: herpes simplex virus type 2 (MS strain); assay: In vitro antiviral activity, herpes simplex virus type 2 (virus rating); format: cell-based; conditions: Vero cells; VR >1.0 marked, 0.5 to 0.9 moderate, <0.5 weak or no activity
[5] = delivered at 0.01 ml/g mouse weight
[6] = system: parainfluenza 3 (C243 strain); assay: In vitro antiviral activity, parainfluenza 3 (virus rating); format: cell-based; conditions: Vero cells; VR >1.0 marked, 0.5 to 0.9 moderate, <0.5 weak or no activity
L1210 = assay: In vivo antitumor activity against L1210 in BDF1 mice; conditions: qd; for T/C: day 1, at maximum soluble dosage
Experimental: Compounds 8, 11, 14 and 17 were comparatively evaluated in vivo for efficacy against L1210 in BDF1 mice.
Mice were inoculated i.p. with 1×10^6 L1210 cells 24 hr before qd, day 1, i.p. drug delivery. Drugs were solubilized in water and delivered at the rate of 0.01 ml/g mouse weight. Then control mice/drug were injected i.p. with equivalent volumes of a 0.9% solution of NaCl, the means and standard deviations reflecting the postinoculation life spans of these mice ranged from 6.30±0.48 to 6.60±0.97 days.

[7] = system: de novo purine biosynthesis in WI-L2 cells; assay: Inhibition of de novo purine biosynthesis ([14C]formate incorporation); format: cell-based, human; conditions: for activity at 50 µM: pre-incubation 8 h
Experimental: Compounds of the invention were also tested for certain biochemical properties. Compounds of the invention were studied for their effect on de novo purine biosynthesis by observing inhibition of incorporation of [^14 C]formate into the acid-soluble fraction of WI-L2 cells (see Table 3). […] However, 8 and 14 (100 μM) were not cytotoxic to WI-L2 cells deficient in adenosine kinase activity.
A normal lymphoblast phenotype B cell line, WI-L2 was used. The enzyme-deficient cell lines used in vitro are: HPRT-, a hypoxanthine-guanine phosphorbosyl transferase (EC 2.4.2.8)deficient line and AK-, an adenosine kinase (EC 2.7.1.20)deficient line. Cells were cultured in RPMI 1640 medium containing 5% dialyzed fetal bovine serum, 20 mM Na HEPES, pH 7.5 and 2 mM glutamine and maintained in log phase growth between 0.5 and 12×10^5 cells/mL. The mutant cell lines were periodically reselected by treatment with 6-thioguanine (HPRT-) or tubercidin (AK-).
(§3) . Inhibition of de novo purine biosynthesis: WI-L2 or adenosine kinase-deficient cells were preincubated at 37° C. with drug for various time periods prior to labeling with [^14 C]formate. Enzyme Assays: Adenosine kinase inhibition studies were accomplished by the filter binding assay method. Inhibition studies were done at 37° C. with an assay mixture containing 4 mM ATP, 1.5 mM MgCl2, 5 or 10 μM [8-^14 C] adenosine (50 mCi/mmol) and 100 mM Tris-maleate, pH 5.5. To prevent the enzymatic breakdown of adenosine, erythro-9-(2-hydroxy-3-nonyl)adenine (EHNA) was added to the cell-free WI-L2 lysate to give 5 μM final assay concentration. The assay was started by the addition of protein. The amount of enzyme, time of assay and sampling volume were adjusted to give acceptable conversion of [8-^14 C] adenosine to [8-^14 C]AMP. Each DE-81 filter was spotted with a constant sampling volume and immersed in H 2 O (4 L) to terminate the reaction. Filters were washed three times with H2 O (4 L) and once with EtOH (100 mL). Dry filters were placed in scintillation vials and radioactivity was counted with 10 mL toluene-based scintillation cocktail.
De novo purine biosynthesis was measured by the incorporation of ^14 C-formate into cellular purine nucleotides or excreted purines after pre-incubation with compound.

[8] = system: pyrimidine (CTP + UTP) and purine (ATP + GTP) nucleoside triphosphates; assay: 14C-bicarbonate incorporation into acid soluble pyrimidine and purine nucleoside triphosphates; format: cell-based
Excerpt: Comparative effect of compounds on ^14 C-bicarbonate
incorporation into acid soluble pyrimidine (PyrTP,
CTP + UTP) and purine (PurTP, ATP + GTP) nucleoside

[9] = Anomerization in aqueous solution (reverse-phase HPLC); format: physicochemical
Experimental: This would be expected where the rate of anomerization is slow compared to the rate of deamination.
The compounds of the invention are capable of crossing the cell membrane, and activated to the 5'-phosphate, thus causing the inhibition of the de novo purine biosynthesis.
as §3, with “HPLC Analysis: Sample components were separated with an LKB model 2150 gradient HPLC system at ambient temperature on an Altex Ultrashere-ODS reverse phase column (Beckman) developed with a linear gradient of buffer A (10 mM KPO4 ', pH 3.83) to 20% component B (60% aqueous CH3 CN) at a combined flow rate of 1.0 mL/min over 15 min. Ultraviolet (UV) absorbance was monitored with an LKB model 2140 diode array detector. Inhibition of” for “. Inhibition of”

[10] = read-out: PurTP, % control, 50.0 μM
[11] = read-out: PydTP, % control, 50.0 μM
[12] = Homo sapiens, WIL2, cell, read-out: de novo purine biosynthesis, % of control, cell, 50 μM
[13] = Homo sapiens, WIL2, media (excreted purines), read-out: de novo purine biosynthesis, % of control, media, 50 μM

SMILES | Antiviral (VR) VV [1] [VR] | solubility (physchem) [µg/mL] | IC50 (LoVo/L cells) [nM] | Antiviral activity in cell culture [2] | IC50 (L1210 cells) [nM] | IC50 (WI-L2 cells) [nM] | Antiviral (VR) HSV2 [4] [VR] | Maximum watersoluble dosage [5] [mg/kg/inj.] | Antiviral (VR) PI3 [6] [VR] | T/C (L1210) | PurTP, 50.0 μM [8] [cpm/10^6 cells] | PyrTP, 50.0 μM [8] [cpm/10^6 cells] | CAA (carbamyl aspartate), 50.0 μM ([8]; zero = undetectable) [cpm/10^6 cells] | activity at 50 µM [8, 10] [%] | activity at 50 µM [8, 11] [%] | activity at 50 µM [7, 12] [%] | activity at 50 µM [7, 13] [%] | also measured
Nc1ncnc2c(N[C@H]3O[C@H](CO)[C@@H](O)[C@H]3O)ncnc12 [Compound 11, 4-Amino-8-(α-D-ribofuranosylamino)pyrimido[5,4-d]pyrimidine] | 1.0 | 2200 (≈ 7.48 mM) | 1000 | antiviral activity | 380 | 250 | 0.2 | 22 | 1.4 | 138 |  |  |  |  |  |  |  | lethal toxicity at maximum soluble dosage [3]: Neither drug was lethally toxic at its maximum soluble dosage; Postinoculation Lifespan (% T/C), 22 mg/kg/inj. (L1210; 22 mg/kg/inj. i.p., day 1): 138 % T/C
COc1ncnc2c(N[C@H]3O[C@H](CO)[C@@H](O)[C@H]3O)ncnc12 [Compound 17, 4-Methoxy-8-(α-D-ribofuranosylamino)pyrimido[5,4-d]pyrimidine] | 0.9 | 3700 (≈ 12 mM) | 18700 | antiviral activity | 2900 | 2500 | 0.1 | 37 | 0.7 | 116 |  |  |  |  |  |  |  | purine de novo assay, short term ([7]; 4 h): inactive; activity at 25 µM ([7]; Homo sapiens, WIL2, cell, 25 μM, pre-incubation 4 h, read-out: de novo purine biosynthesis, % of control, cell, 25 μM): 98.2%; purine de novo assay, longer incubation times ([7]; separate assays, longer incubation times): demonstrated the inhibitory activity; Postinoculation Lifespan (% T/C), 37 mg/kg/inj. (L1210; 37 mg/kg/inj. i.p., day 1): 116 % T/C
O=c1[nH]cnc2c(N[C@@H]3O[C@H](CO)[C@@H](O)[C@H]3O)ncnc12 [Compound 21, 8-(β-D-Ribofuranosylamino)pyrimido[5,4-d]pyrimidin-4(3H)-one] |  |  |  |  |  |  |  |  |  |  | 54484 | 15691 | 0 | 91.5 | 72.3 | 98.2 | 106 | anomeric equilibration in solution [9]: equilibrated from pure β-anomer into a mixture of α- and β-anomers
CN(C)c1ncnc2c(N[C@@H]3O[C@H](CO)[C@@H](O)[C@H]3O)ncnc12 [Compound 27, 4-Dimethylamino-8-(β-D-ribofuranosylamino)pyrimido[5,4-d]pyrimidine] |  |  |  |  |  |  |  |  |  |  | 40581 | 10177 | 0 | 68.2 | 46.9 | 50.7 | 85.8 | 
Nc1nc(N[C@@H]2O[C@H](CO)[C@@H](O)[C@H]2O)c2ncnc(N)c2n1 [Compound 35, 4,6-Diamino-8-(β -D-ribofuranosylamino)pyrimido[5,4-d]pyrimidine] |  |  |  |  |  |  |  |  |  |  | 58130 | 15267 | 0 | 97.7 | 70.4 | 91.2 | 89.8 | 
Nc1ncnc2c(N[C@@H]3O[C@H](CO)[C@@H](O)[C@H]3O)nc(Cl)nc12 [Compound 37, 4-Amino-6-chloro-8-(β-D-ribofuranosylamino)pyrimido[5,4-d]pyrimidine] |  |  |  |  |  |  |  |  |  |  |  |  |  |  |  | 16.4 | 43.4 | PurTP, 15.0 μM ([8]; 15.0 μM): 39833 cpm/10^6 cells; PyrTP, 15.0 μM ([8]; 15.0 μM): 13454 cpm/10^6 cells; CAA (carbamyl aspartate), 15.0 μM ([8]; 15.0 μM, zero = undetectable): 0 cpm/10^6 cells; activity at 15 µM ([8]; read-out: PurTP, % control, 15.0 μM): 66.9%; activity at 15 µM ([8]; read-out: PydTP, % control, 15.0 μM): 62%
